Measurements published in patent publication US9840500B2, “Compounds as dual inhibitors of histone methyltransferases and DNA methyltransferases” (FUNDACIÓN PARA LA INVESTIGACIÓN MÉDICA APLICADA, priority 2014, dated 2017).
Structures can show the parent of a compound that is named as a salt.

Tests used:
[1] = biological target: DNMT1 (Homo sapiens, UniProt P26358); assay: DNMT1 enzyme activity assay (TR-FRET, EPIgeneous methyltransferase assay); format: biochemical
Description: The biochemical assay to measure DNMT1 enzyme activity relies on time-resolved fluorescence energy transfer (TR-FRET) between lumi4-Tb (donor) and d2 (acceptor) using the EPIgeneous methyltransferase assay (CisBio Cat#62SAHPEB). […] TR-FRET signal is inversely proportional to the concentration of SAH, product of DNMT1 enzyme activity, in the sample.
The human DNMT1 was obtained from Reaction Biology Corp. (Cat# DMT-21-124). […] Final percentage of DMSO was 0.5%. • 2 μl of 1 nM DNMT1 enzyme diluted in assay buffer.
(§1) For each well, fluorescence was measured at 620 nm and 665 nm. A ratio (665 nm/620 nm) was then calculated in order to minimize medium interferences. Positive control was obtained in the presence of the vehicle of the compounds. Negative control was obtained in the absence of G9a enzyme activity. Calculated IC50 values were determined using GraphPrism using 4-parameters inhibition curve.

[2] = biological target: T1, human G9a enzyme (Homo sapiens, UniProt Q96KQ7); assay: G9a enzyme activity assay (TR-FRET); format: biochemical
T1 sequence (Q96KQ7 1-1210): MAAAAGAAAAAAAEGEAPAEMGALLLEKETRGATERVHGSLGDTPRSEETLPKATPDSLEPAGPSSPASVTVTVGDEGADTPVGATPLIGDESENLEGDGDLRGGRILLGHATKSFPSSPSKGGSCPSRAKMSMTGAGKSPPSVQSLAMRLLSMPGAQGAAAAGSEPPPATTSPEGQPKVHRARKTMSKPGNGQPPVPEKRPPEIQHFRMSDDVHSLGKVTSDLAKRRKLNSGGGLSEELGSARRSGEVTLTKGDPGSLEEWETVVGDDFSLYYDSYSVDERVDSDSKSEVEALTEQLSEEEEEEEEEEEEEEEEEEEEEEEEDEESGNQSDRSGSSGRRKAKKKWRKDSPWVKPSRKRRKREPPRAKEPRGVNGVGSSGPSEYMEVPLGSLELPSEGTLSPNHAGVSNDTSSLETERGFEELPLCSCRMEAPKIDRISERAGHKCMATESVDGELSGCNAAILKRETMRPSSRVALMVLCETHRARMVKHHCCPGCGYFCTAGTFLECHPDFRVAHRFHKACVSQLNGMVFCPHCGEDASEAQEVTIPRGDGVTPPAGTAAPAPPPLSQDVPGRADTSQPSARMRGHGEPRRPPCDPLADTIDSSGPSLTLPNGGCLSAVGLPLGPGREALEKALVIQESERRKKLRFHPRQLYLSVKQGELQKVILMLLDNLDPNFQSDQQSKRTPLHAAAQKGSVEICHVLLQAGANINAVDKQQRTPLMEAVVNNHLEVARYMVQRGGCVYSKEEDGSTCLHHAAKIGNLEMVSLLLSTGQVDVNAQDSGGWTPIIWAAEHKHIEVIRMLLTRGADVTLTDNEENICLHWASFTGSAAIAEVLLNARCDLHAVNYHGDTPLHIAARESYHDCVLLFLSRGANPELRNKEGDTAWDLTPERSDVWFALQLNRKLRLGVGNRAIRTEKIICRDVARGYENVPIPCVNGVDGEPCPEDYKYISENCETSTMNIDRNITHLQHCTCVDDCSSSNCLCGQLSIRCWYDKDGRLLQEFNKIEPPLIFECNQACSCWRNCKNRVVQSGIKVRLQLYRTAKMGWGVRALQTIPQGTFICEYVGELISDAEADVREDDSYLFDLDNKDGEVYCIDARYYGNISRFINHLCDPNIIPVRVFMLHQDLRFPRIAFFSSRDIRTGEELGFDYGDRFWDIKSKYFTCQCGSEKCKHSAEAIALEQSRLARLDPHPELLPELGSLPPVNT
Description: The biochemical assay to measure G9a enzyme activity relies on time-resolved fluorescence energy transfer (TR-FRET) between europium cryptate (donor) and XL665 (acceptor). […] The human G9a enzyme expressed in a baculovirus infected Sf9 cell expression system was obtained from BPS Biosciences (Cat. #51001). […] Final percentage of DMSO was 0.5%. • 2 μl of 1 nM G9a enzyme diluted in assay buffer. […] Final concentration 150 nM. • Then, add 5 μl of streptavidin XL665 beads. Final concentration of 16 μM. • Read the plate after 1 hour of incubation at room temperature.
as §1

Sequence of DNMT1 (P26358 whole entry): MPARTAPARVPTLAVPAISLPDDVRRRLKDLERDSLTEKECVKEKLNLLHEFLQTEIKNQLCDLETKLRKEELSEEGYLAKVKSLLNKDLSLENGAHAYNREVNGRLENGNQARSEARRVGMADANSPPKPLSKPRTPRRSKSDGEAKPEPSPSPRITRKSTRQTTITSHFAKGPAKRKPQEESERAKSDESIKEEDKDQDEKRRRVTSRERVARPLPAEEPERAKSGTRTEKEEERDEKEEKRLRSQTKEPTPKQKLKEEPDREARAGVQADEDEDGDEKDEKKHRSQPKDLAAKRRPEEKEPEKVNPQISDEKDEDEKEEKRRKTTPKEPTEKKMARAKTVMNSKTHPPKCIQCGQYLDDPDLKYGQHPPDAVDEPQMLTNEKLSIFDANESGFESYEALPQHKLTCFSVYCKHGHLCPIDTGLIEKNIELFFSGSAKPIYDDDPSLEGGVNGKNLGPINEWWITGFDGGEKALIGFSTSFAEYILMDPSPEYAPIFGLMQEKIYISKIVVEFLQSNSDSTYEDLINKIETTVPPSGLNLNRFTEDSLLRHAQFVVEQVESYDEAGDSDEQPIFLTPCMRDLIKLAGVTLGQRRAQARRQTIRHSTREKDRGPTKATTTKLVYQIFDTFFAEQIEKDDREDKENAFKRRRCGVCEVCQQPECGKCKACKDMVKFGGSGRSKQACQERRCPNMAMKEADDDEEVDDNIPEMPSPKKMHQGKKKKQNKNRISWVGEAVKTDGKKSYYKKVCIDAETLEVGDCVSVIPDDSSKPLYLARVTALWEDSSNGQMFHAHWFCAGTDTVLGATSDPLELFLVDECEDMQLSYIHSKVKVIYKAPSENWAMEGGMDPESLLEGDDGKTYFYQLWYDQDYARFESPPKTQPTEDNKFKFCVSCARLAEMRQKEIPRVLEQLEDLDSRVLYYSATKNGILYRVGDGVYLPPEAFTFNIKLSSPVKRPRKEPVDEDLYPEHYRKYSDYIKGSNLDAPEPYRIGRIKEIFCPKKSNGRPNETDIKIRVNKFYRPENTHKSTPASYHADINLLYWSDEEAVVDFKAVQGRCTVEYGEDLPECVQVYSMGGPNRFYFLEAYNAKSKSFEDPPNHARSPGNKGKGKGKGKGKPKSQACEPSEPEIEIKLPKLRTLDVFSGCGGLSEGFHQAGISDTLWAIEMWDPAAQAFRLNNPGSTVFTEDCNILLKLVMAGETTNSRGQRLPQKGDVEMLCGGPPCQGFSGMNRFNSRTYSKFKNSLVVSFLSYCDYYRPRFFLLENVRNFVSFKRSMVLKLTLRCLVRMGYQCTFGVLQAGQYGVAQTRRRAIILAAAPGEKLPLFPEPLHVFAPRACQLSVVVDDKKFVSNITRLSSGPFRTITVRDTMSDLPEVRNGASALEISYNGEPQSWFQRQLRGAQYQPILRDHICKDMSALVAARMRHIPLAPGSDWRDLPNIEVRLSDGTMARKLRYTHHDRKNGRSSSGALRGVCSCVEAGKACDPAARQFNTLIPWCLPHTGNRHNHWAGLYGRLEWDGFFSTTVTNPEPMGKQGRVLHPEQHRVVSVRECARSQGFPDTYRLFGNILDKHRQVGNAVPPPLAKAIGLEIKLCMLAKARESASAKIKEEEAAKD

Structure (SMILES) | IC50 [1] | IC50 [2]
COc1cc2c(NCC3CCCC3)cc(-c3ccc(C)o3)nc2cc1OCCCN1CCCC1 [Compound 3-14] | 1000 to 10000 nM | 1000 to 10000 nM
COc1cc2c(NC3CC3)cc(-c3ccc(C)[nH]3)nc2cc1OCC1CCNCC1 [Compound 11-08] | 1000 to 10000 nM | 1000 to 10000 nM
COc1cc2c(NC3CCN(C)CC3)cc(-c3ccc(CO)o3)nc2cc1OCCCN1CCCC1 [Compound 9-01, [5-[6-methoxy-4-[(1-methyl-4-piperidyl)amino]-7-(3-pyrrolidin-1-ylpropoxy)-2-quinolyl]-2-furyl]methanol; 2,2,2-trifluoroacetic acid] | 500 to 1000 nM | < 100 nM
COc1cc2c(NC3CCN(C)CC3)cc(-c3ccc(-c4ccccc4)o3)nc2cc1OCCCN1CCCC1 [Compound 3-32] | 1000 to 10000 nM | 1000 to 10000 nM
COc1cc2c(NC3CCC(C)(O)CC3)cc(-c3ccc(C)o3)nc2cc1OCCCN1CCCC1 (stereo not drawn) [Compound 3-45] | 1000 to 10000 nM | 100 to 500 nM
COc1cc2c(NC3CC4(CCNCC4)C3)cc(-c3ccc(C)o3)nc2cc1OCC1CCNCC1 [Compound 11-10] | 100 to 500 nM | 1000 to 10000 nM
CCNCc1ccc(-c2cc(NC3CCN(C)CC3)c3cc(OC)c(OCCCN4CCCC4)cc3n2)o1 [Compound 8-02] | 500 to 1000 nM | < 100 nM
COc1cc2c(NC3CCN(C)CC3)cc(-c3cc[nH]c(=O)c3)nc2cc1OCCCN1CCCC1 [Compound 3-37] | 1000 to 10000 nM | 100 to 500 nM
COc1cc2c(NC3CCN(C)CC3)cc(-c3ccn(C)n3)nc2cc1OCCCN1CCCC1 [Compound 3-33] | 1000 to 10000 nM | < 100 nM
COc1cc2c(NC3CCN(C)CC3)cc(-c3ccc(C)o3)nc2cc1OC1CCN(C(=O)OC(C)(C)C)CC1 [Compound 19-03] | 1000 to 10000 nM | 1000 to 10000 nM
COc1cc2c(NC3CCN(C)CC3)cc(C)nc2cc1OCCCN1CCCC1 [Compound 3-23] | 500 to 1000 nM | < 100 nM
COc1cc2c(NC3CCN(C)CC3)cc(-c3ccc(C#N)o3)nc2cc1OCCCN1CCCC1 [Compound 10-01, 5-[6-methoxy-4-[(1-methyl-4-piperidyl)-amino]-7-(3-pyrrolidin-1-ylpropoxy)-2-quinolyl]furan-2-carbonitrile; 2,2,2-trifluoroacetic acid] | 1000 to 10000 nM | 100 to 500 nM
COc1cc2c(NC3CC4(CCNCC4)C3)cc(-c3ccc(C)[nH]3)nc2cc1OCC1CCNCC1 [Compound 11-09] | 100 to 500 nM | 100 to 500 nM
COc1cc2c(NCCC(F)(F)F)cc(-c3ccc(C)o3)nc2cc1OCCCN1CCCC1 [Compound 3-11] | 1000 to 10000 nM | 100 to 500 nM
CCc1ccc(-c2cc(NC3CCN(C)CC3)c3cc(OC)c(OCC4CCNCC4)cc3n2)o1 [Compound 11-03] | 500 to 1000 nM | 1000 to 10000 nM
COc1cc2c(NC3CCNC(=O)C3)cc(-c3ccc(C)o3)nc2cc1OCCCN1CCCC1 (stereo not drawn) [Compound 3-18] | 1000 to 10000 nM | 100 to 500 nM
COc1cc2c(NC3CCN(C)CC3)cc(N3CCN(C)CC3)nc2cc1OCCCN1CCCC1 [Compound 1-02] | 500 to 1000 nM | < 100 nM

Structure (SMILES) | IC50 [1] | IC50 [2]
COc1cc2c(NC3CCCC3)cc(-c3ccc(C)[nH]3)nc2cc1OCCCN1CCCC1 [Compound 3-38] | 100 to 500 nM | < 100 nM
COc1cc2c(NCC3CCN(C)CC3)cc(-c3ccc(C)[nH]3)nc2cc1OCC1CCNCC1 [Compound 11-06] | 100 to 500 nM | 100 to 500 nM
COc1cc2c(NC3CCNCC3)cc(C3CCCCC3)nc2cc1OCCCN1CCCC1 [Compound 7-04, 2-cyclohexyl-6-methoxy-N-(4-piperidyl)-7-(3-pyrrolidin-1-ylpropoxy)quinolin-4-amine; 2,2,2-trifluoroacetic acid] | 500 to 1000 nM | < 100 nM
COc1cc2c(NC3CCN(C)CC3)cc(C3CCC(C)O3)nc2cc1OCCCN1CCCC1 (stereo not drawn) [Compound 15-01, 6-methoxy-N-(1-methyl-4-piperidyl)-2-(5-methyltetrahydrofuran-2-yl)-7-(3-pyrrolidin-1-ylpropoxy)quinolin-4-amine; 2,2,2-trifluoroacetic acid] | 1000 to 10000 nM | < 100 nM
CCc1ccc(-c2cc(NC3CCC34CCN(C3CC3)CC4)c3cc(OC)c(OCCCN4CCCC4)cc3n2)o1 (stereo not drawn) [Compound 19-02, N-(7-cyclopropyl-7-azaspiro[3.5]nonan-3-yl)-2-(5-ethyl-2-furyl)-6-methoxy-7-(3-pyrrolidin-1-ylpropoxy)quinolin-4-amine; 2,2,2-trifluoroacetic acid] | 100 to 500 nM | 500 to 1000 nM
Cc1ccc(-c2cc(NC3CCN(C)CC3)c3cc(OCC(F)(F)F)c(OCCCN4CCCC4)cc3n2)o1 [Compound 13-01, 2-(5-methyl-2-furyl)-N-(1-methyl-4-piperidyl)-7-(3-pyrrolidin-1-ylpropoxy)-6-(2,2,2-trifluoroethoxy)quinolin-4-amine; 2,2,2-trifluoroacetic acid] | 500 to 1000 nM | 500 to 1000 nM
COc1cc2c(NC3CCN(C)CC3)cc(C3CCOCC3)nc2cc1OCCCN1CCCC1 [Compound 7-02, 6-methoxy-N-(1-methyl-4-piperidyl)-7-(3-pyrrolidin-1-ylpropoxy)-2-tetrahydropyran-4-yl-quinolin-4-amine; 2,2,2-trifluoroacetic acid] | 1000 to 10000 nM | < 100 nM
CCc1ccc(-c2cc(NC3CC4(CCN(C5CC5)CC4)C3)c3cc(OC)c(OCCCN4CCCC4)cc3n2)o1 [Compound 19-01, N-(7-cyclopropyl-7-azaspiro[3.5]nonan-2-yl)-2-(5-ethyl-2-furyl)-6-methoxy-7-(3-pyrrolidin-1-ylpropoxy)quinolin-4-amine; 2,2,2-trifluoroacetic acid] | 500 to 1000 nM | 1000 to 10000 nM
COc1cc2c(NC3CCC34CCNCC4)cc(-c3ccc(C)o3)nc2cc1OCCCN1CCCC1 (stereo not drawn) [Compound 4-01, N-(7-azaspiro[3.5]nonan-3-yl)-6-methoxy-2-(5-methyl-2-furyl)-7-(3-pyrrolidin-1-ylpropoxy)quinolin-4-amine; 2,2,2-trifluoroacetic acid] | 100 to 500 nM | < 100 nM
COc1cc2c(NCC3CCN(C)C(=O)C3)cc(-c3ccc(C)[nH]3)nc2cc1OCC1CCNCC1 (stereo not drawn) [Compound 11-07] | 500 to 1000 nM | 500 to 1000 nM
COc1cc2c(NC3CC4(CCNCC4)C3)cc(-c3ccc(C)[nH]3)nc2cc1OCCCN1CCCC1 [Compound 4-02, N-(7-azaspiro[3.5]nonan-2-yl)-6-methoxy-2-(5-methyl-1H-pyrrol-2-yl)-7-(3-pyrrolidin-1-ylpropoxy)quinolin-4 amine; hydrochloride] | 1000 to 10000 nM | < 100 nM
COCCNc1cc(-c2ccc(C)o2)nc2cc(OCCCN3CCCC3)c(OC)cc12 [Compound 3-12] | 1000 to 10000 nM | 100 to 500 nM
COc1cc2c(NC3CCN(C)CC3)cc(-c3ccccc3C)nc2cc1OCCCN1CCCC1 [Compound 3-34] | 1000 to 10000 nM | < 100 nM
COc1cc2c(NC3CCN(C)CC3)cc(-c3cccnc3)nc2cc1OCCCN1CCCC1 [Compound 3-30] | 1000 to 10000 nM | < 100 nM
COc1cc2c(NC3CCN(C)C(=O)C3)cc(-c3ccc(C)[nH]3)nc2cc1OCC1CCN(C)CC1 (stereo not drawn) [Compound 12-04] | 500 to 1000 nM | 1000 to 10000 nM
COc1cc2c(NC3CCN(C)CC3)cc(-c3cc(C)oc3C)nc2cc1OCCCN1CCCC1 [Compound 3-35] | 500 to 1000 nM | < 100 nM
